In US20240083857A1, “2-Methyl-Quinazolines” (Bayer Pharma Aktiengesellschaft, priority 2017, published 2024):
Read-outs that look alike come from different tables or passages of the source.

Legend:
[1] = target: Epidermal Growth Factor Receptor (EGFR) (Homo sapiens (Human), UniProt P00533); assay: EGFR kinase assay (TR-FRET); type: biochemical; details: read-out: EGFR kinase inhibition IC50
Outline: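 Read-out is the 665/620 nm HTRF ratio, from a Tb-cryptate anti-phosphotyrosine antibody and streptavidin-XL665 bound to phosphorylated biotin-peptide substrate. The enzyme, A431-derived EGFR (~3 U/ml), was given 15 min compound pre-binding at 22° C in Hepes pH 7.0 with Mg2+/Mn2+ before reaction.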

[2] = target: human SOS1 (nucleotide exchange of K-Ras^G12C) (Homo sapiens, UniProt Q07889); assay: Biochemical assay 2: K-Ras^G12C activation assay by hSOS1 at high GTP concentration (HTRF); details: high GTP; read-out: Assay 2 (KRAS-Activation by SOS high GTP) activity expressed as IC50

Chain of Epidermal Growth Factor Receptor (EGFR) (P00533 25-1210): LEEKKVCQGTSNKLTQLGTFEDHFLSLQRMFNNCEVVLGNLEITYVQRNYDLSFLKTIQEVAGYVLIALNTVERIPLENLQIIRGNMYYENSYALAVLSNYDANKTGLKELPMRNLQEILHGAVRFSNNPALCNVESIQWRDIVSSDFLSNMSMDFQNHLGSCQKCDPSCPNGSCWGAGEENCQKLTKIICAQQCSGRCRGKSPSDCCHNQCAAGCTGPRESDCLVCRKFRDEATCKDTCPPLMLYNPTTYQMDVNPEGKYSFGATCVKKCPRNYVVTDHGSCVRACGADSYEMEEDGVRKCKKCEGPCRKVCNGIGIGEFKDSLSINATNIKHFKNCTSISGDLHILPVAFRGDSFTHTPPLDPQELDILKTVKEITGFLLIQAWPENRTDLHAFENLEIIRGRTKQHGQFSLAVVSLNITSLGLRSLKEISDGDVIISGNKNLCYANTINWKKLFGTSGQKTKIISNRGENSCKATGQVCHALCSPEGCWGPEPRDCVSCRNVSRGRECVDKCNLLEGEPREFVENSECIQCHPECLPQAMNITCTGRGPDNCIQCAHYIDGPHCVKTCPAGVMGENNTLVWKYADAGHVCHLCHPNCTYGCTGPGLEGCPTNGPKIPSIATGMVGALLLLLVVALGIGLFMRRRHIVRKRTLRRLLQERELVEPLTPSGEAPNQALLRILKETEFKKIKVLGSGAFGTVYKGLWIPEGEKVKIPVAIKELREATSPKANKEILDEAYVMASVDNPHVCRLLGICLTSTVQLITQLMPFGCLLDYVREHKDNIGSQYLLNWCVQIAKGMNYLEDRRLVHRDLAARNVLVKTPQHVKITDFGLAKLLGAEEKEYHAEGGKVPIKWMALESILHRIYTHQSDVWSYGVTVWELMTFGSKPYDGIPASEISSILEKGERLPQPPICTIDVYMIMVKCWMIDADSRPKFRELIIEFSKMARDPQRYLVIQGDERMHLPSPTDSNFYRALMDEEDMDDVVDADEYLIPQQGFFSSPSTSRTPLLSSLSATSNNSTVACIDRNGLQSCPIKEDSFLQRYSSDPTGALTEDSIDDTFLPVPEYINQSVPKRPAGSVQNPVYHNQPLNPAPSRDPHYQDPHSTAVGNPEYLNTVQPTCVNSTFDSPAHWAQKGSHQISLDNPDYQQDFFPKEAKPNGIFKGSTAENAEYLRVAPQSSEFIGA

Structure (SMILES): COc1cc2nc(C)nc(NC(C)c3ccc(-c4ccccc4C(C)=O)s3)c2cc1OC (centres unmarked) [Example 324, 1-[2-(5-{1-[(6,7-dimethoxy-2-methylquinazolin-4-yl)amino]ethyl}thiophen-2-yl)phenyl]ethanone]
- IC50 ([1]; values given in μM): > 20 µM
- IC50 [2]: 3380 nM

Structure (SMILES): COc1cc2nc(C)nc(NC(C)c3ccc(-c4ccccc4OCCN4CCCC4)s3)c2cc1OC (centres unmarked) [Example 325, 6,7-di methoxy-2-methyl-N-[1-(5-{2-[2-(pyrrolidin-1-yl)ethoxy]phenyl}thiophen-2-yl)ethyl]quinazolin-4-amine]
- IC50 ([1]; values given in μM): > 20 µM
- IC50 [2]: 443 nM

Structure (SMILES): COc1cc2nc(C)nc(NC(C)c3cccc4sc(C)cc34)c2cc1OC (centres unmarked) [Example 330, 6,7-dimethoxy-2-methyl-N-[1-(2-methyl-1-benzothiophen-4-yl)ethyl]quinazolin-4-amine]
- IC50 ([1]; values given in μM): > 20 µM
- IC50 [2]: 365 nM

Structure (SMILES): COc1cc2nc(C)nc(NC(C)c3ccnc4sccc34)c2cc1OC (centres unmarked) [Example 331, 6,7-dimethoxy-2-methyl-N-[1-(thieno[2,3-b]pyridin-4-yl)ethyl]quinazolin-4-amine]
- IC50 ([1]; values given in μM): > 20 µM
- IC50 [2]: 992 nM

Structure (SMILES): COc1cc2nc(C)nc(NC(C)c3cncc4sccc34)c2cc1OC (centres unmarked) [Example 332, 6,7-dimethoxy-2-methyl-N-[1-(thieno[2,3-c]pyridin-4-yl)ethyl]quinazolin-4-amine]
- IC50 ([1]; values given in μM): > 20 µM
- IC50 [2]: 2620 nM

Structure (SMILES): COc1cc2nc(C)nc(NC(C)c3nccc4sccc34)c2cc1OC (centres unmarked) [Example 333, 6,7-dimethoxy-2-methyl-N-[1-(thieno[3,2-c]pyridin-4-yl)ethyl]quinazolin-4-amine]
- IC50 ([1]; unit inferred): 16.4 µM
- IC50 [2]: 6200 nM

Structure (SMILES): COc1cc2nc(C)nc(N[C@H](C)c3cccc(-c4c(C)n[nH]c4C)c3)c2cc1OC [Example 334, N-{(1R)-1-[3-(3,5-dimethyl-1H-pyrazol-4-yl)phenyl]ethyl}-6,7-dimethoxy-2-methylquinazolin-4-amine]
- IC50 ([1]; values given in μM): > 20 µM
- IC50 [2]: 773 nM

Structure (SMILES): COc1cc2nc(C)nc(N[C@H](C)c3cccc(-c4cn[nH]c4C)c3)c2cc1OC [Example 335, 6,7-dimethoxy-2-methyl-N-{(1R)-1-[3-(5-methyl-1H-pyrazol-4-yl)phenyl]ethyl}quinazolin-4-amine]
- IC50 ([1]; values given in μM): > 20 µM
- IC50 [2]: 371 nM

Structure (SMILES): COc1cc2nc(C)nc(N[C@H](C)c3cccc(-c4c(C)noc4C)c3)c2cc1OC [Example 336, N-{(1R)-1-[3-(3,5-dimethyl-1,2-oxazol-4-yl)phenyl]ethyl}-6,7-dimethoxy-2-methyl-quinazolin-4-amine]
- IC50 ([1]; values given in μM): > 20 µM
- IC50 [2]: 1260 nM

Structure (SMILES): COc1cc2nc(C)nc(N[C@H](C)c3cccc(-c4ccn[nH]4)c3)c2cc1OC [Example 337, 6,7-dimethoxy-2-methyl-N-{(1R)-1-[3-(1H-pyrazol-5-yl)phenyl]ethyl}quinazolin-4-amine]
- IC50 ([1]; values given in μM): > 20 µM
- IC50 [2]: 806 nM

Structure (SMILES): COc1cc2nc(C)nc(N[C@H](C)c3cccc(-c4cnn(C)c4)c3)c2cc1OC [Example 338, 6,7-dimethoxy-2-methyl-N-{(1R)-1-[3-(1-methyl-1H-pyrazol-4-yl)phenyl]ethyl}quinazolin-4-amine]
- IC50 ([1]; values given in μM): > 20 µM
- IC50 [2]: 838 nM

Structure (SMILES): COc1cc2nc(C)nc(N[C@H](C)c3cccc(-c4ccnn4C)c3)c2cc1OC [Example 339, 6,7-dimethoxy-2-methyl-N-{(1R)-1-[3-(1-methyl-1H-pyrazol-5-yl)phenyl]ethyl}quinazolin-4-amine]
- IC50 ([1]; values given in μM): > 20 µM
- IC50 [2]: 1380 nM

Structure (SMILES): COc1cc2nc(C)nc(N[C@H](C)c3cccc(-n4ccnc4)c3)c2cc1OC [Example 340, N-{(1R)-1-[3-(1H-imidazol-1-yl)phenyl]ethyl}-6,7-dimethoxy-2-methylquinazolin-4-amine]
- IC50 ([1]; values given in μM): > 20 µM
- IC50 [2]: 909 nM
